Assays:
Experiment in all cases: Kinase selectivity, scanMAX Kinase assay panel (DiscoverX), % control at 1 uM
Assay type in all cases: binding
[1] = biological target: T1, scanMAX Kinase assay panel (Homo sapiens, UniProt O14733); details: MKK7; 1 uM; read-out: Percent Control (%)
T1 construct: purchased DiscoverX
T1 sequence (O14733 1-419): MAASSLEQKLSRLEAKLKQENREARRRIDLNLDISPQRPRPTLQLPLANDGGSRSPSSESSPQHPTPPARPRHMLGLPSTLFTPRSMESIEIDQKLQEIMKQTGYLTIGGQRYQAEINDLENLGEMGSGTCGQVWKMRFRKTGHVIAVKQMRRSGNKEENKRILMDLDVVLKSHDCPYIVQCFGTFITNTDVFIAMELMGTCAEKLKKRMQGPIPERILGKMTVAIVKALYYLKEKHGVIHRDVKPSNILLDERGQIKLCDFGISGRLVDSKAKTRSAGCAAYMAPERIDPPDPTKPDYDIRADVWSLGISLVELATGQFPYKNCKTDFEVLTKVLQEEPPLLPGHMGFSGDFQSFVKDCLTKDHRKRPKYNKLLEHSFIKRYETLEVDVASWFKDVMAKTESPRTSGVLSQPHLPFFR
Outline: (§1)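 Read-out is percent of control, derived from the signal with compound relative to positive and negative controls: (compound − positive)/(negative − positive) × 100. Each enzyme received test drug at 1 uM in DMSO, and values under 35% count as active.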

[2] = biological target: T2, scanMAX Kinase assay panel (Homo sapiens, UniProt P04626); details: ERBB2; 1 uM; read-out: Percent Control (%)
T2 construct: purchased DiscoverX
Outline: as §1

[3] = biological target: T3, scanMAX Kinase assay panel (Homo sapiens, UniProt P24723); details: PRKCH; 1 uM; read-out: Percent Control (%)
T3 construct: purchased DiscoverX
Outline: as §1

[4] = biological target: T4, scanMAX Kinase assay panel (Homo sapiens, UniProt P37023); details: ACVRL1; 1 uM; read-out: Percent Control (%)
T4 construct: purchased DiscoverX
Outline: as §1

[5] = biological target: T5, scanMAX Kinase assay panel (Homo sapiens, UniProt P53671); details: LIMK2; 1 uM; read-out: Percent Control (%)
T5 construct: purchased DiscoverX
Outline: as §1

[6] = biological target: T6, scanMAX Kinase assay panel (Homo sapiens, UniProt Q16832); details: DDR2; 1 uM; read-out: Percent Control (%)
T6 construct: purchased DiscoverX
T6 sequence (Q16832 22-855): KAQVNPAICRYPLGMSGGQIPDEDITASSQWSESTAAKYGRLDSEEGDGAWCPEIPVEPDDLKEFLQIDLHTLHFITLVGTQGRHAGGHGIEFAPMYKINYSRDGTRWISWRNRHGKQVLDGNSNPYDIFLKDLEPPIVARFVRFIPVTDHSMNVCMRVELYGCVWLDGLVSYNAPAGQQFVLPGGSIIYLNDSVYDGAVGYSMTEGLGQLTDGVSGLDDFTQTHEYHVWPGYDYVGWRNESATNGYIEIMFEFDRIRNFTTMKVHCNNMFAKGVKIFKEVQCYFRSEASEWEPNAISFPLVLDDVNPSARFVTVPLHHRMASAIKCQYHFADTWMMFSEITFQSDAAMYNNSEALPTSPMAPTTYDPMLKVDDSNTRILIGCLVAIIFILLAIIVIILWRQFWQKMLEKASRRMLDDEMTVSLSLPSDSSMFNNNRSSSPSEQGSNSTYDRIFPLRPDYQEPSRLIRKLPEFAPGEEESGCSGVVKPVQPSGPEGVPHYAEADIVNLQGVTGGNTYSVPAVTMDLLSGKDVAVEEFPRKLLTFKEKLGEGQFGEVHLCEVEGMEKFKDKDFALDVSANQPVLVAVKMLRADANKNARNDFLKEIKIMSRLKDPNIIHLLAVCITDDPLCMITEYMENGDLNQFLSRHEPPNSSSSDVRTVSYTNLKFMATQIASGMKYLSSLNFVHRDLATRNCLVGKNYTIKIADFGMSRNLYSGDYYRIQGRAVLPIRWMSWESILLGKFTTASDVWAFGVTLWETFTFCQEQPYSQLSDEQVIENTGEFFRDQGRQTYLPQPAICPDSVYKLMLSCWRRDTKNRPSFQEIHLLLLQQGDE
Outline: as §1

[7] = biological target: T7, scanMAX Kinase assay panel (Homo sapiens, UniProt Q86YV6); details: MYLK4; 1 uM; read-out: Percent Control (%)
T7 construct: purchased DiscoverX
T7 sequence (Q86YV6 1-388): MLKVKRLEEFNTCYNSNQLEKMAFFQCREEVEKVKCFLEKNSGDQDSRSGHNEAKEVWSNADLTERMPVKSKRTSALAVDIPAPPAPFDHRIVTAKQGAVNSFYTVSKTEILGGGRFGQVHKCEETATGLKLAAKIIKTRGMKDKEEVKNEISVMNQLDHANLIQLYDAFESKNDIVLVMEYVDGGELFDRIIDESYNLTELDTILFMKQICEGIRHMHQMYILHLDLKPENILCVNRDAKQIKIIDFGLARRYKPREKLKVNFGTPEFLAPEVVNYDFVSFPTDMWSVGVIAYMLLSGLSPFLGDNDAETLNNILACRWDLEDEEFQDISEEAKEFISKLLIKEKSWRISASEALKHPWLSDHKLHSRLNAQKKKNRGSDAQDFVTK
Outline: as §1

[8] = biological target: T8, scanMAX Kinase assay panel (Homo sapiens, UniProt Q9H4A3); details: WNK1; 1 uM; read-out: Percent Control (%)
T8 construct: purchased DiscoverX
Outline: as §1

T3 sequence (P24723 whole entry): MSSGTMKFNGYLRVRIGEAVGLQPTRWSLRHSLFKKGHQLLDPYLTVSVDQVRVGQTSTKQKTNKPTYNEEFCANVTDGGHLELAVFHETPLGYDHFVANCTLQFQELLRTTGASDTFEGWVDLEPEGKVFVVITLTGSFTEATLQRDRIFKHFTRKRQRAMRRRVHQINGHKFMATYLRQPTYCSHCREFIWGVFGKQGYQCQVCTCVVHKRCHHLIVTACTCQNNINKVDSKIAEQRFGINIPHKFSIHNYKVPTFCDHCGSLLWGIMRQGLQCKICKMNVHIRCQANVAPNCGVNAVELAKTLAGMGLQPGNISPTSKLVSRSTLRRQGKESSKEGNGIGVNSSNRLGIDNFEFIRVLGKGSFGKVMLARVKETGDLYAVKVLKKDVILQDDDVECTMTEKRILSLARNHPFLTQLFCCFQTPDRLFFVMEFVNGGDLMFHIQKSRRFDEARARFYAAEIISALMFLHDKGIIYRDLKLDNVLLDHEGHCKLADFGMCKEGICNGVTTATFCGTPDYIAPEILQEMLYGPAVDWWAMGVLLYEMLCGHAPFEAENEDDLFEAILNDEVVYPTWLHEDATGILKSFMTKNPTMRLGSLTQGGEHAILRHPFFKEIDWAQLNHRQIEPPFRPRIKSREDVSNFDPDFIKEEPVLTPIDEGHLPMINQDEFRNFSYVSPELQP
T4 sequence (P37023 22-503): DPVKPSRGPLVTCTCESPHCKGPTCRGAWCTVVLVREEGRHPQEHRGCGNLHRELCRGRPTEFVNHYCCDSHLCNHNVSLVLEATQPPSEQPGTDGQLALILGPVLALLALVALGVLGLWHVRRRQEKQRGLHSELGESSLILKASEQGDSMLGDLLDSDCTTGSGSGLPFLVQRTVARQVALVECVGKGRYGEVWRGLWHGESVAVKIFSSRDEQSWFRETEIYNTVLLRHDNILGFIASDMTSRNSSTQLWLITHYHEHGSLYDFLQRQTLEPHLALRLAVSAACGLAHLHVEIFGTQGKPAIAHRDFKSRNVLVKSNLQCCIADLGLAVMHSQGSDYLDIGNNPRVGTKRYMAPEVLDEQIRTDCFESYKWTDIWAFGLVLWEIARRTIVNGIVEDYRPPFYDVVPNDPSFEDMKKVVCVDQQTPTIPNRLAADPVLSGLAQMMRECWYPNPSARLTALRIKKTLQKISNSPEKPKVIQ
T2 sequence (P04626 23-1255): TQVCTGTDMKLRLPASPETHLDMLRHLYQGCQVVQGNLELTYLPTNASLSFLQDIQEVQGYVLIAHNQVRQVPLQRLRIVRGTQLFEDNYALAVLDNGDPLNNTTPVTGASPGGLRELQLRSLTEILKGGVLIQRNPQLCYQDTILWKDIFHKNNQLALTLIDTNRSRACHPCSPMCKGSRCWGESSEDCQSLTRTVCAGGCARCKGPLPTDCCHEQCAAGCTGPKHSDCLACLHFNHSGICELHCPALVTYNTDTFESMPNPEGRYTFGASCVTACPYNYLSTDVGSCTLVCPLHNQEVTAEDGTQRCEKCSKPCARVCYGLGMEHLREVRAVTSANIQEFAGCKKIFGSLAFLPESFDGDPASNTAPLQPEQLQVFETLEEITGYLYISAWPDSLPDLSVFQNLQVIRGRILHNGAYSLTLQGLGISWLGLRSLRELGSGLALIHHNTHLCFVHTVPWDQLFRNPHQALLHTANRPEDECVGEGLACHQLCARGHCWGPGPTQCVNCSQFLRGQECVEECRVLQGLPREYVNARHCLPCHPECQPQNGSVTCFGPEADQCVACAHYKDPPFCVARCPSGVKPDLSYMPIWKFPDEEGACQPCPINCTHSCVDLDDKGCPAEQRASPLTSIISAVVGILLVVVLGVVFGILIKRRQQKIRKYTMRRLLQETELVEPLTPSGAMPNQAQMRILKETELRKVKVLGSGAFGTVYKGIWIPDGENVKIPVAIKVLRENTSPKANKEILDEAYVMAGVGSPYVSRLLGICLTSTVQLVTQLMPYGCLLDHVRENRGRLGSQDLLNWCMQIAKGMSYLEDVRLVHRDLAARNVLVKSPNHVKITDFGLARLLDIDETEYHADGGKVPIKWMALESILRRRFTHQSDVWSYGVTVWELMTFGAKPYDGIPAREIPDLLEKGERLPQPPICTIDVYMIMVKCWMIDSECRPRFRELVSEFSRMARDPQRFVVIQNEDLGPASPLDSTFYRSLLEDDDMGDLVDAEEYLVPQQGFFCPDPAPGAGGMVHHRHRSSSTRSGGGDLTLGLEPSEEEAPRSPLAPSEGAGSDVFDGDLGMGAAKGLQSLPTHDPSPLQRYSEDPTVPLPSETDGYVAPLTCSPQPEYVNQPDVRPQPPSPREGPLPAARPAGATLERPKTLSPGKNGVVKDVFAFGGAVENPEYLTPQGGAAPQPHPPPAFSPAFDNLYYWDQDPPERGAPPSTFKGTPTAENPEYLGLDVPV
T8 sequence (Q9H4A3 whole entry): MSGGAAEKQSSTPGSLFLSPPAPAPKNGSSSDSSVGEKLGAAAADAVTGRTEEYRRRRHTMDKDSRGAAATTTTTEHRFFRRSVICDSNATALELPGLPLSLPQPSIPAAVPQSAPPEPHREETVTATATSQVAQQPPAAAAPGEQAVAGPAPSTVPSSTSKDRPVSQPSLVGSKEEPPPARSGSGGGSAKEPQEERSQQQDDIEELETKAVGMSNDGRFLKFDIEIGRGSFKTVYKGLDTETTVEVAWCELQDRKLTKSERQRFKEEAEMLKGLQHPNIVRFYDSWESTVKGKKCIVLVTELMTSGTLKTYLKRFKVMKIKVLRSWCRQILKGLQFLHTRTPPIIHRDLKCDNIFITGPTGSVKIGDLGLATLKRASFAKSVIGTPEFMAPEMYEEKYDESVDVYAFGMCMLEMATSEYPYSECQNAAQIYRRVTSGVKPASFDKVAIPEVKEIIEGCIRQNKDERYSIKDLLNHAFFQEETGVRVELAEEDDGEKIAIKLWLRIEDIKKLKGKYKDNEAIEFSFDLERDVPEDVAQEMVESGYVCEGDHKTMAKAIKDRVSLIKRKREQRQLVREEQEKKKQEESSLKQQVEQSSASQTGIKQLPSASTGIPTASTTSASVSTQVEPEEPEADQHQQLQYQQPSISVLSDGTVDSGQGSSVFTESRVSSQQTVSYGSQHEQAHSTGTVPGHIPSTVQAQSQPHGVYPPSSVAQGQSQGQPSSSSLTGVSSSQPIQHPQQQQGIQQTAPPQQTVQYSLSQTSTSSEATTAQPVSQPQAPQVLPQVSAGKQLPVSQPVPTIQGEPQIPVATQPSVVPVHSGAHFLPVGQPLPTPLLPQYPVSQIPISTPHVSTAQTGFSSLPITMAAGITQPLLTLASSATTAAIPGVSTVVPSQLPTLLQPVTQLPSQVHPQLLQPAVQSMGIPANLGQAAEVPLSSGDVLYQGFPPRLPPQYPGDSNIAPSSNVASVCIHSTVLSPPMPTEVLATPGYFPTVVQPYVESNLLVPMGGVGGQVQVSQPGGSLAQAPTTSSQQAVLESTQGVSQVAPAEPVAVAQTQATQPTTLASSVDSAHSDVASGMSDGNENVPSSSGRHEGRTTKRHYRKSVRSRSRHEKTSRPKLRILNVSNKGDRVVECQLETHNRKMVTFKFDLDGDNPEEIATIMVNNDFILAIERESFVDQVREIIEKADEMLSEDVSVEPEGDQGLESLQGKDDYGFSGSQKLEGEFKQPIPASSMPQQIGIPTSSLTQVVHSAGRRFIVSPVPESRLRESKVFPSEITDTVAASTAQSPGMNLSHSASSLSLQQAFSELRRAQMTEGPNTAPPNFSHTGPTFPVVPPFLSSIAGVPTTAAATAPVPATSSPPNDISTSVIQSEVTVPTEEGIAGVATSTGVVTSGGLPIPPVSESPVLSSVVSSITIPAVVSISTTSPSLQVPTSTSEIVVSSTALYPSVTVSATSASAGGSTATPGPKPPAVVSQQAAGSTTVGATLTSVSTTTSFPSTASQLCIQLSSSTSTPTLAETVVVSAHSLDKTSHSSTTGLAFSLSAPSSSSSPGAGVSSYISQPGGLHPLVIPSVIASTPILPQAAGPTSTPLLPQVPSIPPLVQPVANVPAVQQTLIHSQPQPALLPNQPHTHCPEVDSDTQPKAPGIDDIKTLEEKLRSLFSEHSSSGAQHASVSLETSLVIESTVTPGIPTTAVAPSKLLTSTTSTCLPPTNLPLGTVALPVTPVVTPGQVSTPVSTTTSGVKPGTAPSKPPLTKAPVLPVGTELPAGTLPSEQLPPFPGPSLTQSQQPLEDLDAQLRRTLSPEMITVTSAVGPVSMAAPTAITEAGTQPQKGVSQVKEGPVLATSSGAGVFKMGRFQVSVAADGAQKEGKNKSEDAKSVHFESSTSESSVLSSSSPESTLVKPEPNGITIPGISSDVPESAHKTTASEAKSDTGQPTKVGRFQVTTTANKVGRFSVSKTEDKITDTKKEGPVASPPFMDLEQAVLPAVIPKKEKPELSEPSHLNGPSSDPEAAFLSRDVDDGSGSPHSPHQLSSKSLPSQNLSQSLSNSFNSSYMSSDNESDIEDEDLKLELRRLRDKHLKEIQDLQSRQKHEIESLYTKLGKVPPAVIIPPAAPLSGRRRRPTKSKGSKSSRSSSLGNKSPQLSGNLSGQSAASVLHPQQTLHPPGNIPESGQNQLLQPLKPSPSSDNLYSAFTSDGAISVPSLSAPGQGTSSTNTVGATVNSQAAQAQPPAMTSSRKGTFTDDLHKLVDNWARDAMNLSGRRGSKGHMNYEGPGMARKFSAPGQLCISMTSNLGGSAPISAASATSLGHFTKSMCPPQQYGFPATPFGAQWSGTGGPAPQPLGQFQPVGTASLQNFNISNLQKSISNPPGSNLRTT

SMILES	remaining binding at 1 µM [1]	remaining binding at 1 µM [2]	remaining binding at 1 µM [3]	remaining binding at 1 µM [4]	remaining binding at 1 µM [5]	remaining binding at 1 µM [6]	remaining binding at 1 µM [7]	remaining binding at 1 µM [8]
Cc1ccc(C(=O)Nc2ccc(CN3CCN(C)CC3)c(C(F)(F)F)c2)cc1C#Cc1cnc2c(Nc3cnn(C)c3)cccn12 [Example 1, 4-methyl-3-((8-((1-methyl-1H-pyrazol-4-yl)amino)imidazo[1,2-a]pyridin-3-yl)ethynyl)-N-(4-((4-methylpiperazin-1-yl)methyl)-3-(trifluoromethyl)phenyl)benzamide]	90%	1%	100%	99%	3%	0%	86%	55%
Cc1cn(-c2cc(NC(=O)c3ccc(C)c(C#Cc4cnc5c(Nc6cnn(C)c6)cccn45)c3)cc(C(F)(F)F)c2)cn1 [Example 12, 4-methyl-N-(3-(4-methyl-1H-imidazol-1-yl)-5-(trifluoromethyl)phenyl)-3-((8-((1-methyl-1H-pyrazol-4-yl)amino)imidazo[1,2-a]pyridin-3-yl)ethynyl)benzamide]	100%	68%	100%	99%	50%	7%	92%	100%
Cc1ccc(NC(=O)C2(C(=O)Nc3ccc(F)cc3)CC2)cc1C#Cc1cnc2c(Nc3cnn(C(C)C)c3)cccn12 [Example 78]	99%	81%	100%	100%	100%	3%	100%	92%
